Source: ChEMBL document CHEMBL2346571 (Bioorg Med Chem, 2013)
Calls of active or inactive are those of the source. No cut-off for these calls is given here.

Assays:
Cannabinoid receptor 1 = Cannabinoid receptor 1 (Homo sapiens, UniProt P21554); assay: Displacement of [3H]-CP55940 from human CB1 receptor after 90 mins by liquid scintillation spectrophotometer analysis
Rattus norvegicus [1] = assay: Antiobesity activity in Wistar rat assessed as reduction of food intake at 3 mg/kg, ip after 30 to 240 mins; format: functional, organism-based; design: dose 3 mg/kg
Cannabinoid receptor 2 = Cannabinoid receptor 2 (Homo sapiens, UniProt P34972); assay: Displacement of [3H]-CP55940 from human CB2 receptor after 90 mins by liquid scintillation spectrophotometer analysis
Rattus norvegicus [2] = assay: Antiobesity activity in Wistar rat assessed as reduction of food intake at 3 mg/kg, ip; format: functional, organism-based; design: dose 3 mg/kg
Rattus norvegicus [3] = assay: Increase of food intake in Wistar rat at 3 mg/kg, ip after 30 to 240 mins; format: functional, organism-based; design: dose 3 mg/kg
Rattus norvegicus [4] = assay: Antiobesity activity in Wistar rat assessed as reduction of food intake at 3 mg/kg, ip after 30 mins; format: functional, organism-based; design: dose 3 mg/kg
Rattus norvegicus [5] = assay: Antiobesity activity in Wistar rat assessed as reduction of food intake at 3 mg/kg, ip after 60 to 240 mins; format: functional, organism-based; design: dose 3 mg/kg

Cannabinoid receptor 2, sequence (P34972 whole entry): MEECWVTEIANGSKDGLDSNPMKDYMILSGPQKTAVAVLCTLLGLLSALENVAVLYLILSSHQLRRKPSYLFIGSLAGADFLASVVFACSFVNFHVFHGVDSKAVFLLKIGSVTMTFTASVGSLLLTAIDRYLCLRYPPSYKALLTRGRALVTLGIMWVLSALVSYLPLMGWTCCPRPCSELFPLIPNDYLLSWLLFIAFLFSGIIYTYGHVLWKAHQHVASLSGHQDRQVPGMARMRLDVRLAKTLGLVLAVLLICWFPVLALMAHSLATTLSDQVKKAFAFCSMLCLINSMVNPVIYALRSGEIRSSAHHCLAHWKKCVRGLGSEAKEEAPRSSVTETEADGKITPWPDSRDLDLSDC
Cannabinoid receptor 1, sequence (P21554 whole entry): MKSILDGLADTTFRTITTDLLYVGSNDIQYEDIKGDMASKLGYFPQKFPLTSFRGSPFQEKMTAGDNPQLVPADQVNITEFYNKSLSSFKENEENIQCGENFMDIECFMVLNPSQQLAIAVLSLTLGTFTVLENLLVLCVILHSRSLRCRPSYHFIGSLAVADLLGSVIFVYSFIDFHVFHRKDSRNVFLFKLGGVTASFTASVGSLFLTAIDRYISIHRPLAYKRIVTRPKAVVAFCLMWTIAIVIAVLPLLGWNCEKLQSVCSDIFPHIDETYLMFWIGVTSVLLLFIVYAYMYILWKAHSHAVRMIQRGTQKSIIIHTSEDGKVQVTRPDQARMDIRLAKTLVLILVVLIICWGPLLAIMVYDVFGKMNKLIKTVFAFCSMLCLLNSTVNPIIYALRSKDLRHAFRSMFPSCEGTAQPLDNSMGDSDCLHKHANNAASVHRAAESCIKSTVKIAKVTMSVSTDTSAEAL

Row | SMILES | Ki (Cannabinoid receptor 1) [µM] | Activity (Rattus norvegicus [1]) | Ki (Cannabinoid receptor 2) [µM] | Activity (Rattus norvegicus [2]) | Activity (Rattus norvegicus [3]) | Activity (Rattus norvegicus [4]) | Activity (Rattus norvegicus [5])
1 | CCCCCCCC/C=C\CCCCCCCCNC(=O)c1cc(-c2ccccc2)n(-c2ccccc2)n1 | > 40 | inactive | > 40 |  |  |  | 
2 | CCCCCCCC/C=C\CCCCCCCCNC(=O)c1nn(-c2ccccc2)c(-c2ccccc2)c1C | > 40 | inactive | > 40 |  |  |  | 
3 | CCCCCCCC/C=C\CCCCCCCCNC(=O)c1nc(-c2ccc(Cl)cc2)n(-c2ccc(Cl)cc2)n1 | > 40 | inactive | > 40 |  |  |  | 
4 | CCCCCc1cc(-c2ccccc2)n(-c2ccccc2)n1 | 6.16 |  | 2.94 |  |  |  | 
5 | CCCCCCCCCCCCCCCCNC(=O)c1cc(-c2ccccc2)n(-c2ccccc2)n1 | > 40 | Active | > 10 |  |  |  | 
6 | CCCCCc1cc(-c2ccc(Cl)cc2)n(-c2ccc(Cl)cc2Cl)n1 | > 40 |  | 0.458 | Active |  |  | 
7 | CCCCCCc1nc(-c2ccc(Cl)cc2)n(-c2ccc(Cl)cc2Cl)n1 | 0.829 |  | 3.08 |  |  |  | 
8 | Cc1c(C(=O)NN2CCCCC2)nn(-c2ccccc2)c1-c1ccccc1 | 9.69 |  | 18.2 |  | Active |  | 
9 | CCCCCCc1cc(-c2ccc(Cl)cc2)n(-c2ccc(Cl)cc2Cl)n1 | > 40 |  | > 40 |  |  |  | 
10 | CCCCCCCCCCCCCCCCNC(=O)c1nc(-c2ccc(Cl)cc2)n(-c2ccc(Cl)cc2)n1 | > 10 | Active | > 10 |  |  |  | 
11 | CCCCCCCCCCCCCCCCNC(=O)c1nn(-c2ccccc2)c(-c2ccccc2)c1C | > 10 | Active | > 10 |  |  |  | 
12 | O=C(NN1CCCCC1)c1cc(-c2ccccc2)n(-c2ccccc2)n1 | 4.59 |  | 27.9 |  |  | inactive | Active
